Legend:
[1] = tested on: FU-OV-1 (Ovarian Carcinoma); test: combination Emax (second highest fraction inhibited in the dose matrix, 72 h); higher = more inhibition; extreme values may be limits of the assay
Method in brief: (§1)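 Cell lines grown in DMEM/F12 or RPMI with 10% FBS were plated in 1536-well plates and held 24 hours at 37°C, 5% CO2 before 72 hours of exposure to two-drug dose matrices, with DMSO typically at 0.2%. CellTiter-Glo 2.0 luminescence gave viability, which was converted to inhibition. Vehicle wells were set to 0 and blank wells to 1. Combination Emax is the second-highest inhibition in the matrix, and Bliss excess is the observed combination effect minus the expected EA + EB − EA·EB, where EA and EB are the single-agent effects.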

[2] = tested on: TC-YIK (Other Solid Carcinomas); test: as above
Method in brief: as §1

CS1 (Chondrosarcoma) = test: Bliss excess, mean over the matrix (fraction); higher = more synergy
Method in brief: as §1

[3] = tested on: ETK-1 (Biliary Tract Carcinoma); test: as above
Method in brief: as §1

[4] = tested on: FU-OV-1 (Ovarian Carcinoma); test: as above
Method in brief: as §1

[5] = tested on: SNG-M (Endometrial Carcinoma); test: as above
Method in brief: as §1

[6] = tested on: SLVL (B-Cell Non-Hodgkin's Lymphoma); test: as above
Method in brief: as §1

SK-MEL-1 (Melanoma) = test: as above
Method in brief: as §1

[7] = tested on: NOMO-1 (Acute Myeloid Leukemia); test: as above
Method in brief: as §1

[8] = tested on: TC-YIK (Other Solid Carcinomas); test: as above
Method in brief: as §1

[9] = tested on: MEG-01 (Chronic Myelogenous Leukemia); test: as above
Method in brief: as §1

[10] = tested on: NCI-H1688 (Small Cell Lung Carcinoma); test: as above
Method in brief: as §1

[11] = tested on: KG-1 (Acute Myeloid Leukemia); test: as above
Method in brief: as §1

[12] = tested on: GDM-1 (Acute Myeloid Leukemia); test: as above
Method in brief: as §1

[13] = tested on: JHH-6 (Hepatocellular Carcinoma); test: as above
Method in brief: as §1
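For Bliss excess, mean over the matrix in this document: after 72 h of two-drug dosing.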

Structure (SMILES) | combination Emax [1] | combination Emax [2] | Bliss excess (CS1 (Chondrosarcoma)) | Bliss excess [3] | Bliss excess [4] | Bliss excess [5] | Bliss excess [6] | Bliss excess (SK-MEL-1 (Melanoma)) | Bliss excess [7] | Bliss excess [8] | Bliss excess [9] | Bliss excess [10] | Bliss excess [11] | Bliss excess [12] | Bliss excess [13]
CS(=O)(=O)CCNCc1ccc(-c2ccc3ncnc(Nc4ccc(OCc5cccc(F)c5)c(Cl)c4)c3c2)o1 [Lapatinib] + NC1(c2ccc(-c3nc4ccn5c(=O)[nH]nc5c4cc3-c3ccccc3)cc2)CCC1 [MK-2206] (first compound max 10 µM, 7x7, partner max 10 µM) | 0.751 | 0.944 | -0.0142 | -0.0441 | 0.0239 | 0.0254 | 0.0539 | -0.0408 | 0.0427 | -0.014 | 0.0128 | -0.0202 | – | – | –
COc1nnc2ccc(N3CCC(c4ccc(OCCN5CCN(C)C(=O)[C@H]5C)cc4)CC3)nn12 [AZD5153] + C=CCn1c(=O)c2cnc(Nc3ccc(N4CCN(C)CC4)cc3)nc2n1-c1cccc(C(C)(C)O)n1 [AZD1775] (first compound max 1 µM, partner max 1 µM) | 0.631 | 0.935 | -0.0172 | -0.0736 | 0.0138 | 0.0898 | -0.142 | -0.0312 | -0.0364 | -0.0712 | -0.0693 | -0.0604 | 0.004 | -0.0247 | -0.048
CC(=O)c1c(C)c2cnc(Nc3ccc(N4CCNCC4)cn3)nc2n(C2CCCC2)c1=O [Palbociclib] + Cn1cnc2c(F)c(Nc3ccc(Br)cc3Cl)c(C(=O)NOCCO)cc21 [Selumetinib] (first compound max 10 µM, 7x7, partner max 10 µM) | 0.4 | 0.729 | 0.0219 | -0.0351 | 0.0004 | -0.117 | -0.0355 | -0.0559 | -0.014 | 0.001 | 0.0404 | -0.0471 | -0.0108 | 0.0343 | 0.0291
CC(=O)c1c(C)c2cnc(Nc3ccc(N4CCNCC4)cn3)nc2n(C2CCCC2)c1=O [Palbociclib] + CC1(C)CCC(CN2CCN(c3ccc(C(=O)NS(=O)(=O)c4ccc(NCC5CCOCC5)c([N+](=O)[O-])c4)c(Oc4cnc5[nH]ccc5c4)c3)CC2)=C(c2ccc(Cl)cc2)C1 [Venetoclax] (first compound max 10 µM, 7x7, partner max 1 µM) | 0.175 | 0.534 | -0.0457 | -0.0207 | -0.0496 | -0.0501 | -0.0892 | -0.0353 | -0.0032 | -0.0713 | -0.0096 | -0.0505 | 0.0888 | 0.0557 | -0.0461
NC1(C(=O)N[C@@H](CCO)c2ccc(Cl)cc2)CCN(c2ncnc3[nH]ccc23)CC1 [Capivasertib] + C[C@@H]1COCCN1C2=NC(=NC(=C2)C3(CC3)[S@](=N)(=O)C)C4=C5C=CNC5=NC=C4 [AZD6738] (first compound max 10 µM, 7x7, partner max 10 µM) | 0.35 | 0.901 | -0.0517 | -0.066 | -0.0313 | -0.0984 | -0.0936 | 0.0147 | -0.0579 | 0.0091 | -0.0464 | -0.0062 | -0.026 | -0.024 | -0.0229
COc1nnc2ccc(N3CCC(c4ccc(OCCN5CCN(C)C(=O)[C@H]5C)cc4)CC3)nn12 [AZD5153] + C[C@@H]1COCCN1C2=NC(=NC(=C2)C3(CC3)[S@](=N)(=O)C)C4=C5C=CNC5=NC=C4 [AZD6738] (first compound max 1 µM, 7x7, partner max 10 µM) | 0.744 | 0.965 | -0.0559 | 0.0107 | -0.0452 | -0.0014 | -0.13 | 0.0103 | -0.0324 | -0.0626 | -0.0595 | 0.0719 | 0.0159 | 0.0146 | -0.0111
C=CCn1c(=O)c2cnc(Nc3ccc(N4CCN(C)CC4)cc3)nc2n1-c1cccc(C(C)(C)O)n1 [AZD1775] + C1CN(CCC1(C(=O)N[C@@H](CCO)C2=CC=C(C=C2)Cl)N)C3=NC=NC4=C3C=CN4 [Capivasertib] (first compound max 3 µM, partner max 3 µM) | 0.565 | 0.895 | -0.0394 | -0.107 | -0.0615 | -0.0575 | – | -0.059 | 0.0076 | -0.0543 | – | -0.0409 | 0.0152 | -0.0422 | -0.0294
NC1(C(=O)N[C@@H](CCO)c2ccc(Cl)cc2)CCN(c2ncnc3[nH]ccc23)CC1 [Capivasertib] + COc1nnc2ccc(N3CCC(c4ccc(OCCN5CCN(C)C(=O)[C@H]5C)cc4)CC3)nn12 [AZD5153] (first compound max 10 µM, 7x7, partner max 1 µM) | 0.575 | 0.962 | 0.0057 | 0.0486 | -0.0492 | 0.0787 | -0.102 | 0.0315 | -0.0061 | -0.0723 | -0.0355 | 0.001 | -0.0162 | 0.0163 | -0.0365
NC1(C(=O)N[C@@H](CCO)c2ccc(Cl)cc2)CCN(c2ncnc3[nH]ccc23)CC1 [Capivasertib] + CC(C)n1c(=O)n(C)c2cnc3cc(F)c(-c4ccc(OCCCN5CCCCC5)nc4)cc3c21 [AZD1390] (first compound max 10 µM, 7x7, partner max 0.3 µM) | 0.253 | 0.17 | -0.0698 | -0.0189 | -0.0541 | -0.0484 | -0.0671 | -0.0207 | -0.0537 | -0.0346 | -0.0245 | -0.044 | -0.0386 | -0.0904 | -0.0908
CS(=O)(=O)CCNCc1ccc(-c2ccc3ncnc(Nc4ccc(OCc5cccc(F)c5)c(Cl)c4)c3c2)o1 [Lapatinib] + C[C@@H](Oc1cc(-c2cnn(C3CCNCC3)c2)cnc1N)c1c(Cl)ccc(F)c1Cl [Crizotinib] (first compound max 10 µM, 7x7, partner max 10 µM) | 0.696 | 0.957 | -0.0093 | -0.0596 | -0.0304 | -0.0413 | -0.0518 | -0.0827 | -0.0755 | -0.0828 | -0.0083 | -0.0764 | -0.0028 | -0.0027 | -0.0262
Cn1cnc2c(F)c(Nc3ccc(Br)cc3Cl)c(C(=O)NOCCO)cc21 [Selumetinib] + C=CCn1c(=O)c2cnc(Nc3ccc(N4CCN(C)CC4)cc3)nc2n1-c1cccc(C(C)(C)O)n1 [AZD1775] (first compound max 10 µM, partner max 1 µM) | 0.47 | 0.826 | -0.0195 | -0.0128 | -0.015 | -0.0444 | -0.0275 | 0.0121 | -0.0509 | -0.03 | 0.0437 | -0.115 | 0.0445 | -0.0254 | -0.0963
COc1nnc2ccc(N3CCC(c4ccc(OCCN5CCN(C)C(=O)[C@H]5C)cc4)CC3)nn12 [AZD5153] + Cn1cnc2c(F)c(Nc3ccc(Br)cc3Cl)c(C(=O)NOCCO)cc21 [Selumetinib] (first compound max 1 µM, 7x7, partner max 10 µM) | 0.735 | 0.93 | 0.01 | -0.0451 | 0.0236 | 0.0042 | -0.0385 | 0.0933 | 0.0443 | 0.0028 | -0.0222 | -0.0216 | 0.024 | -0.0266 | 0.0053
COc1cc2ncnc(Nc3ccc(F)c(Cl)c3)c2cc1OCCCN1CCOCC1 [Gefitinib] + CC(C)n1c(=O)n(C)c2cnc3cc(F)c(-c4ccc(OCCCN5CCCCC5)nc4)cc3c21 [AZD1390] (first compound max 10 µM, 7x7, partner max 0.3 µM) | 0.296 | 0.188 | -0.0466 | -0.11 | -0.0717 | -0.109 | -0.0591 | 0.0081 | -0.0347 | -0.046 | -0.058 | -0.0626 | -0.0507 | -0.0833 | -0.0603
CN(C)CCCOc1ccc(-c2ccc3ncc4c(c3c2)n(C2CCOCC2)c(=O)n4C)cn1 [AZD0156] + O=C(c1cc(Cc2n[nH]c(=O)c3ccccc23)ccc1F)N1CCN(C(=O)C2CC2)CC1 [Olaparib] (first compound max 3 µM, partner max 3 µM) | 0.211 | 0.379 | 0.0148 | -0.0029 | -0.0526 | -0.0267 | 0.0638 | -0.0491 | 0.0887 | 0.102 | 0.0239 | -0.0122 | 0.0474 | 0.109 | -0.019
COc1nnc2ccc(N3CCC(c4ccc(OCCN5CCN(C)C(=O)[C@H]5C)cc4)CC3)nn12 [AZD5153] + Cc1c2c(nn1C)CSCc1cc(n(C)n1)CSc1cc(c3ccccc3c1)OCCCc1c(C(=O)O)n(C)c3c-2c(Cl)ccc13 [AZD5991] (first compound max 1 µM, 7x7, partner max 1 µM) | 0.835 | 0.98 | -0.0342 | -0.0436 | 0.0022 | -0.0033 | -0.119 | -0.0016 | 0.0355 | -0.0146 | -0.0104 | 0.0155 | 0.0382 | 0.0307 | -0.0727
Cc1nc(-c2cn3c(n2)-c2ccc(-c4cnn(C(C)(C)C(N)=O)c4)cc2OCC3)n(C(C)C)n1 [Taselisib] + O=C(Nc1ccc2[nH]nc(-c3ccncc3)c2c1)[C@@H]1CCN(CC(=O)N2CCN(c3ccc(-c4ncccn4)cc3)CC2)C1 [SCH772984] (first compound max 10 µM, 7x7, partner max 5 µM) | 0.727 | 0.661 | 0.0942 | – | -0.0373 | -0.0211 | 0.0524 | 0.0839 | 0.141 | 0.0859 | 0.0128 | – | – | – | –
Cc1nc(Nc2ncc(C(=O)Nc3c(C)cccc3Cl)s2)cc(N2CCN(CCO)CC2)n1 [Dasatinib] + CC(=O)Nc1cccc(-n2c(=O)n(C3CC3)c(=O)c3c(Nc4ccc(I)cc4F)n(C)c(=O)c(C)c32)c1 [Trametinib] (first compound max 2 µM, 7x7, partner max 1 µM) | – | 0.638 | -0.022 | 0.0226 | – | -0.0097 | -0.147 | -0.0852 | -0.126 | 0.0746 | 0.0019 | -0.0122 | 0.0659 | -0.102 | 0.0847
CS(=O)(=O)CCNCc1ccc(-c2ccc3ncnc(Nc4ccc(OCc5cccc(F)c5)c(Cl)c4)c3c2)o1 [Lapatinib] + Cn1cnc2c(F)c(Nc3ccc(Br)cc3Cl)c(C(=O)NOCCO)cc21 [Selumetinib] (first compound max 10 µM, 7x7, partner max 10 µM) | 0.55 | 0.531 | -0.0337 | – | -0.0698 | -0.071 | 0.0683 | -0.0654 | -0.0346 | 0.0665 | -0.0206 | – | – | – | –

Reference: the supplement of paper PMC11061612
